≈ marks a conversion by molar mass, not a printed value.
What was measured:
[1] = test system: Kasumi-1; test: Leukemia cell growth inhibition, MTT, 72 h; assay type: cell-based; conditions: Homo sapiens
Excerpt: (§1) Leukemia cell lines: leukemia cell lines: K562/adr (drug-resistant, chronic myeloid leukemia, CML), NB4 (acute promyelocytic leukemia, AML), Kasumi-1 (acute myeloid leukemia M2 type, AML-M2), Jurkat (acute lymphoblastic leukemia, ALL), all of which were donated by Cancer Research Institute of Zhejiang University, China; and H9 (acute lymphoblastic leukemia, ALL), which was purchased from China Center for Type Culture Collection.
(§2) 6000 well-growing leukemia cells were obtained and inoculated into wells of a 96-well cell culture plate. […] On the next day, the 1-oxo/acylated-14-acylated oridonin derivatives of different concentrations were added and mixed uniformly. The plate was placed in a carbon dioxide cell incubator (5% CO2) at 37° C. and was incubated for 72 hours. Then the viable cell concentration was determined by MTT method.

[2] = test system: K562/ADR; test: Leukemia cell growth inhibition, MTT, 72 h; assay type: cell-based; conditions: Homo sapiens
Excerpt: as §1, §2

[3] = test system: RPMI 8226; test: Multiple myeloma cell growth inhibition, MTT, 72 h; assay type: cell-based; conditions: Homo sapiens
Method: Multiple myeloma cell lines: RPMI8226 (multiple myeloma), purchased from Fuxiang Bio-tech Co. Ltd., Shanghai, China.
as §2, with “well-growing” for “well-growing leukemia”, “and” for “and was”

[4] = test system: U87-MG; test: Solid tumor cell growth inhibition, MTT, 72 h; assay type: cell-based; conditions: Homo sapiens, U-87 MG
Method: (§3) 6000 well-growing human solid tumor cells were obtained and inoculated into wells of a 96-well cell culture plate. The culture medium was DMEM High Glucose cell culture medium containing 10% fetal bovine serum. The plate was placed in a carbon dioxide cell incubator (5% CO2) at 37° C. and incubated for 24 hours. After added with 1-oxo/acylated-14-acylated oridonin derivatives of different concentration and mixed uniformly, the plate was placed in a carbon dioxide cell incubator (5% CO2) at 37° C. and incubated for 72 hours. Then the viable cell concentration was determined by MTT method.

[5] = test system: PC-3; test: Solid tumor cell growth inhibition, MTT, 72 h; assay type: cell-based; conditions: Homo sapiens
Method: as §3

[6] = test system: PANC-1; test: Solid tumor cell growth inhibition, MTT, 72 h; assay type: cell-based; conditions: Homo sapiens
Method: as §3

[7] = test system: A549; test: Solid tumor cell growth inhibition, MTT, 72 h; assay type: cell-based; conditions: Homo sapiens
Method: as §3

[8] = test system: Hep G2; test: Solid tumor cell growth inhibition, MTT, 72 h; assay type: cell-based; conditions: Homo sapiens, HepG2
Method: as §3

[9] = test system: SK-OV-3; test: Solid tumor cell growth inhibition, MTT, 72 h; assay type: cell-based; conditions: Homo sapiens, SK-OV-3, 72 h, MTT; for IC50: read-out: IC50 SK-OV-3; for IC90: read-out: IC90 SK-OV-3
Method: as §3

[10] = test system: CaEs-17; test: Solid tumor cell growth inhibition, MTT, 72 h; assay type: cell-based; conditions: Homo sapiens, CaEs17
Method: as §3

[11] = test system: Becap-37; test: Solid tumor cell growth inhibition, MTT, 72 h; assay type: cell-based; conditions: Homo sapiens
Method: as §3

[12] = test system: MG-63; test: Solid tumor cell growth inhibition, MTT, 72 h; assay type: cell-based; conditions: Homo sapiens
Method: as §3

[13] = test system: RKO; test: Solid tumor cell growth inhibition, MTT, 72 h; assay type: cell-based; conditions: Homo sapiens
Method: as §3

[14] = test system: Hela; test: Solid tumor cell growth inhibition, MTT, 72 h; assay type: cell-based, human; conditions: Homo sapiens, HeLa; 72 h, MTT
Method: as §3

[15] = test system: MGC-803; test: Solid tumor cell growth inhibition, MTT, 72 h; assay type: cell-based, human; conditions: Homo sapiens, MGC-803; 72 h, MTT
Method: as §3

[16] = test system: CNE; test: Solid tumor cell growth inhibition, MTT, 72 h; assay type: cell-based, human; conditions: Homo sapiens, CNE; 72 h, MTT
Method: as §3

[17] = test system: Hep-2; test: Solid tumor cell growth inhibition, MTT, 72 h; assay type: cell-based, human; conditions: Homo sapiens, HEp-2; 72 h, MTT
Method: as §3

[18] = test system: H9; test: Leukemia cell growth inhibition, MTT, 72 h; assay type: cell-based, human; conditions: Homo sapiens, H9; 72 h, MTT
Excerpt: as §1, §2

[19] = test system: NB4; test: Leukemia cell growth inhibition, MTT, 72 h; assay type: cell-based, human; conditions: Homo sapiens, NB-4; 72 h, MTT
Excerpt: as §1, §2

[20] = test system: Jurkat; test: Leukemia cell growth inhibition, MTT, 72 h; assay type: cell-based, human; conditions: Homo sapiens, Jurkat; 72 h, MTT
Excerpt: as §1, §2

Compound | IC50 [1] [µg/mL] | IC90 [1] [µg/mL] | IC50 [2] [µg/mL] | IC90 [2] [µg/mL] | IC50 [3] [µg/mL] | IC90 [3] [µg/mL] | IC50 [4] [µg/mL] | IC90 [4] [µg/mL] | IC50 [5] [µg/mL] | IC90 [5] [µg/mL] | IC50 [6] [µg/mL] | IC90 [6] [µg/mL] | IC50 [7] [µg/mL] | IC90 [7] [µg/mL] | IC50 [8] [µg/mL] | IC90 [8] [µg/mL] | IC50 [9] [µg/mL] | IC90 [9] [µg/mL] | IC50 [10] [µg/mL] | IC90 [10] [µg/mL] | also measured
C=C1C(=O)[C@]23[C@H](O)[C@H]1CC[C@H]2[C@@]12CO[C@]3(O)[C@@H](O)[C@@H]1C(C)(C)CC[C@@H]2O [OR, Oridonin] | 1.32 (≈ 3.62 µM) | 3.72 (≈ 10.2 µM) | 1.32 (≈ 3.62 µM) | 3.46 (≈ 9.49 µM) | 2.73 (≈ 7.49 µM) | 5.68 (≈ 15.6 µM) | 2.58 (≈ 7.08 µM) | 6.67 (≈ 18.3 µM) | 7.94 (≈ 21.8 µM) | 13 (≈ 35.6 µM) | 9.1 (≈ 25 µM) | 16 (≈ 43.9 µM) | 13.7 (≈ 37.6 µM) | > 16 | 6.77 (≈ 18.6 µM) | 13.1 (≈ 36 µM) | 7.94 (≈ 21.8 µM) | 13 (≈ 35.6 µM) | 3.31 (≈ 9.08 µM) | 6.86 (≈ 18.8 µM) | IC50 [11]: 5.06 µg/mL (≈ 13.9 µM); IC90 [11]: 12.9 µg/mL (≈ 35.5 µM); IC50 [12]: 1.86 µg/mL (≈ 5.1 µM); IC90 [12]: 5.6 µg/mL (≈ 15.4 µM); IC50 [13]: 2.24 µg/mL (≈ 6.15 µM); IC90 [13]: 3.96 µg/mL (≈ 10.9 µM); IC50 [14]: 5.22 µg/mL (≈ 14.3 µM); IC90 [14]: 10.7 µg/mL (≈ 29.4 µM); IC50 [15]: 5.88 µg/mL (≈ 16.1 µM); IC90 [15]: 7.95 µg/mL (≈ 21.8 µM); IC50 [16]: 5.45 µg/mL (≈ 15 µM); IC90 [16]: 10.5 µg/mL (≈ 28.9 µM); IC50 [17]: 4.66 µg/mL (≈ 12.8 µM); IC90 [17]: 7.99 µg/mL (≈ 21.9 µM); IC50 [18]: 1.36 µg/mL (≈ 3.73 µM); IC90 [18]: 3.57 µg/mL (≈ 9.8 µM); IC50 [19]: 0.78 µg/mL (≈ 2.14 µM); IC90 [19]: 2.4 µg/mL (≈ 6.59 µM); IC50 [20]: 1.89 µg/mL (≈ 5.19 µM); IC90 [20]: 3.95 µg/mL (≈ 10.8 µM)
C=C1C(=O)[C@]23[C@H](OC(=O)c4ccccc4Cl)[C@H]1CC[C@H]2[C@@]12CO[C@@]3(O)[C@@H](O)[C@@H]1C(C)(C)CCC2=O [BS-OR-003] | 0.72 (≈ 1.44 µM) | 2.25 (≈ 4.49 µM) | 0.71 (≈ 1.42 µM) | 2.07 (≈ 4.13 µM) | 0.46 (≈ 0.918 µM) | 1.79 (≈ 3.57 µM) | 0.99 (≈ 1.98 µM) | 2.82 (≈ 5.63 µM) | 1.82 (≈ 3.63 µM) | 3.82 (≈ 7.63 µM) | 2.34 (≈ 4.67 µM) | 8.51 (≈ 17 µM) | 2.82 (≈ 5.63 µM) | 5.64 (≈ 11.3 µM) | 1.69 (≈ 3.37 µM) | 7.48 (≈ 14.9 µM) | 1.82 (≈ 3.63 µM) | 3.82 (≈ 7.63 µM) | 1.49 (≈ 2.97 µM) | 5.23 (≈ 10.4 µM) | IC50 [11]: 1.12 µg/mL (≈ 2.24 µM); IC90 [11]: 3.09 µg/mL (≈ 6.17 µM); IC50 [12]: 0.48 µg/mL (≈ 0.958 µM); IC90 [12]: 2.74 µg/mL (≈ 5.47 µM); IC50 [13]: 0.66 µg/mL (≈ 1.32 µM); IC90 [13]: 1.49 µg/mL (≈ 2.97 µM); IC50 [14]: 1.84 µg/mL (≈ 3.67 µM); IC90 [14]: 5.31 µg/mL (≈ 10.6 µM); IC50 [15]: 1.43 µg/mL (≈ 2.85 µM); IC90 [15]: 10.7 µg/mL (≈ 21.4 µM); IC50 [16]: 1.93 µg/mL (≈ 3.85 µM); IC90 [16]: 6.62 µg/mL (≈ 13.2 µM); IC50 [17]: 1.85 µg/mL (≈ 3.69 µM); IC90 [17]: 7.56 µg/mL (≈ 15.1 µM); IC50 [18]: 0.83 µg/mL (≈ 1.66 µM); IC90 [18]: 1.82 µg/mL (≈ 3.63 µM); IC50 [19]: 0.22 µg/mL (≈ 0.439 µM); IC90 [19]: 0.81 µg/mL (≈ 1.62 µM); IC50 [20]: 0.81 µg/mL (≈ 1.62 µM); IC90 [20]: 2.72 µg/mL (≈ 5.43 µM)
C=C1C(=O)[C@]23[C@H](OC(=O)c4ccccc4Br)[C@H]1CC[C@H]2[C@@]12CO[C@@]3(O)[C@@H](O)[C@@H]1C(C)(C)CCC2=O [BS-OR-020] | 0.76 (≈ 1.39 µM) | 2.85 (≈ 5.23 µM) | 0.73 (≈ 1.34 µM) | 2.31 (≈ 4.24 µM) | 0.59 (≈ 1.08 µM) | 3.84 (≈ 7.04 µM) | 1.19 (≈ 2.18 µM) | 3.69 (≈ 6.77 µM) | 2.56 (≈ 4.69 µM) | 7.07 (≈ 13 µM) | 2.32 (≈ 4.25 µM) | 6.09 (≈ 11.2 µM) | 2.76 (≈ 5.06 µM) | 5.78 (≈ 10.6 µM) | 1.68 (≈ 3.08 µM) | 7.35 (≈ 13.5 µM) | 2.56 (≈ 4.69 µM) | 7.07 (≈ 13 µM) | 1.78 (≈ 3.26 µM) | 7.28 (≈ 13.3 µM) | IC50 [11]: 1.31 µg/mL (≈ 2.4 µM); IC90 [11]: 3.95 µg/mL (≈ 7.24 µM); IC50 [12]: 0.76 µg/mL (≈ 1.39 µM); IC90 [12]: 4.52 µg/mL (≈ 8.29 µM); IC50 [13]: 0.84 µg/mL (≈ 1.54 µM); IC90 [13]: 1.94 µg/mL (≈ 3.56 µM); IC50 [14]: 1.79 µg/mL (≈ 3.28 µM); IC90 [14]: 7.19 µg/mL (≈ 13.2 µM); IC50 [15]: 1.65 µg/mL (≈ 3.03 µM); IC90 [15]: 8.86 µg/mL (≈ 16.2 µM); IC50 [16]: 1.8 µg/mL (≈ 3.3 µM); IC90 [16]: 7.21 µg/mL (≈ 13.2 µM); IC50 [17]: 1.92 µg/mL (≈ 3.52 µM); IC90 [17]: 7.4 µg/mL (≈ 13.6 µM); IC50 [18]: 0.89 µg/mL (≈ 1.63 µM); IC90 [18]: 1.84 µg/mL (≈ 3.37 µM); IC50 [19]: 0.27 µg/mL (≈ 0.495 µM); IC90 [19]: 1.34 µg/mL (≈ 2.46 µM); IC50 [20]: 0.88 µg/mL (≈ 1.61 µM); IC90 [20]: 4.31 µg/mL (≈ 7.9 µM)
